Measurements taken from PMC9677951 (Journal of medicinal chemistry, 2020).
“And” between values parts separate entries of the source, which are not always exact repeats. Equal values may be shown once. “Also recorded” adds a separate entry of the source. Read-outs that look alike come from different tables or passages of the source.

Columns and labels:
Kunming mice = assay: Acute toxicity study in Kunming mice; format: in vivo; conditions: single oral dose 2000 mg/kg
[1] = test system: WT virus and NNRTI-resistant HIV-1 strains; assay: Broad-spectrum anti-HIV-1 activity against WT and NNRTI-resistant strains; format: cell-based; conditions: Human immunodeficiency virus 1, read-out: EC50 range, broad-spectrum activity
[2] = test system: HIV-1 strain RES056 (K103N+Y181C); conditions: read-out: EC50 RES056, previously reported, ref [9]-[13], cited from earlier work
HIV-1 E138K [3] = conditions: read-out: EC50 E138K; previously reported; ref [9]-[13]; cited from earlier work
HIV-1 F227L+V106A [4] = conditions: read-out: EC50 F227L+V106A; previously reported; ref [9]-[13]; cited from earlier work
HIV-1 K103N = conditions: read-out: EC50 K103N; previously reported; ref [9]-[13]; cited from earlier work
WT HIV-1 (IIIB) [5] = conditions: read-out: EC50 WT; previously reported; ref [9]-[13]; cited from earlier work
WT HIV-1 (IIIB) [6] = conditions: read-out: EC50 IIIB, MT-4 cells, MTT method
[7] = test system: HIV-1 strain RES056 (K103N+Y181C); conditions: read-out: EC50 RES056, MT-4 cells, MTT method
HIV-1 F227L+V106A [8] = assay: Anti-HIV-1 activity against F227L+V106A mutant in MT-4 cells, MTT method; format: cell-based; conditions: Human immunodeficiency virus 1, MT4, read-out: EC50 F227L+V106A
HIV-1 Y188L = assay: Anti-HIV-1 activity against Y188L mutant in MT-4 cells, MTT method; format: cell-based; conditions: Human immunodeficiency virus 1, MT4, read-out: EC50 Y188L
WT HIV-1 (IIIB) [9] = assay: microbe, parasite or virus in culture; conditions: Human immunodeficiency virus 1, IIIB, MT4, read-out: EC50 IIIB
HIV-1 E138K [10] = assay: Anti-HIV-1 activity against E138K mutant in MT-4 cells, MTT method; format: cell-based; conditions: Human immunodeficiency virus 1, MT4, read-out: EC50 E138K
HIV-1 Y181C = assay: Anti-HIV-1 activity against Y181C mutant in MT-4 cells, MTT method; format: cell-based; conditions: Human immunodeficiency virus 1, MT4, read-out: EC50 Y181C

SMILES | EC50 (HIV-1 E138K [3]) [µM] | EC50 (HIV-1 F227L+V106A [4]) [µM] | EC50 (HIV-1 K103N) [µM] | EC50 (WT HIV-1 (IIIB) [5]) [µM] | EC50 [7] [µM] | EC50 [2] [µM] | also measured
Cc1cc(/C=C/C#N)cc(C)c1Oc1nc(Nc2ccc(C#N)c(F)c2)nc2ccsc12 [Compound 24b, (E)-4-((4-(4-(2-cyanovinyl)-2,6-dimethylphenoxy)thieno[3,2-d]pyrimidin-2-yl)amino)-2-fluorobenzonitrile] |  |  |  |  |  |  | Acute toxicity: behaviors and body weight vs control group (Kunming mice): no abnormal behaviors or significant changes of body weight; Acute toxicity: mortality or poisoning symptoms (Kunming mice; following 7 days, 2000 mg/kg): no mortality or poisoning symptoms; also recorded: no acute toxicity; EC50 [1]: 0.0036 to 0.0215 µM
Cc1cc(C#N)cc(C)c1Oc1nc(NC2CCN(Cc3ccc(S(N)(=O)=O)cc3)CC2)nc2ccsc12 [Compound K-5a2] | 0.0029 | 0.0042 ± 0.0012 | 0.0029 | 0.0014 ± 0.0004 |  |  | EC50 ([2]; listed as 3): 0.0306 µM and 0.031 µM
O=C1Nc2ccc(Cl)cc2[C@@](C#CC2CC2)(C(F)(F)F)O1 [EFV, efavirenz] |  |  |  |  | 0.26 ± 0.0476 |  | EC50 (WT HIV-1 (IIIB) [6]): 0.00249 ± 0.000547 µM
Cc1cc(C#N)cc(C)c1Oc1nc(Nc2ccc(C#N)cc2)nc(N)c1Br [ETR, Etravirine] | 0.014 ± 0.0022 | 0.029 ± 0.0077 | 0.0024 ± 0.0006 | 0.0041 ± 0.0001 | 0.0322 ± 0.0122 | 0.017 ± 0.0018 | EC50 (HIV-1 F227L+V106A [8]): 0.0197 ± 0.0073 µM; EC50 (HIV-1 Y188L): 0.0204 ± 0.00864 µM; EC50 (WT HIV-1 (IIIB) [9]): 0.00255 ± 0.00037 µM; EC50 (HIV-1 E138K [10]): 0.00976 ± 0.0069 µM; EC50 (HIV-1 Y181C): 0.0145 ± 0.00822 µM
Cc1cc(/C=C/C#N)cc(C)c1Nc1ccnc(Nc2ccc(C#N)cc2)n1 [RPV, rilpivirine] |  |  |  | 0.001 ± 0.0003 |  | 0.011 ± 0.0019 | 
